Laboratory results taken from ChEMBL document CHEMBL1201862, “PubChem BioAssay data set” (2004).
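96-well plates; 48 h exposure; 5 concentrations. Endpoints by linear interpolation between flanking doses. Not reached: highest tested concentration assigned. GI50 = concentration required for 50% inhibition of growth.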 Calls of active or inactive are those of the source. Cut-off read from the data, not from the text of the source: active = GI50 up to about 1.1 µM and inactive = higher.

What was measured:
Assay in all cases: NCI anticancer screen, dose series, 48 h
A498 = system: A498
A549 = system: A549
CCRF-CEM = system: CCRF-CEM
EKVX = system: EKVX
HCC 2998 = system: HCC 2998
HL-60 = system: HL-60
HOP-62 = system: HOP-62
HT-29 = system: HT-29
KM12 = system: KM12
NCI-H226 = system: NCI-H226
OVCAR-3 = system: OVCAR-3
OVCAR-8 = system: OVCAR-8
RPMI-8226 = system: RPMI-8226
RXF 393 = system: RXF 393
SF-268 = system: SF-268
SK-MEL-2 = system: SK-MEL-2
HCT-116 = system: HCT-116
HOP-92 = system: HOP-92

Measured: GI50

COc1ccc(OC(C)C(=O)O)c2c(=O)ccccc12 (stereo unspecified)
inactive: A498 > 100 µM | A549 > 100 µM | CCRF-CEM > 100 µM | EKVX > 100 µM | HCC 2998 > 100 µM | HL-60 > 100 µM | HOP-62 > 100 µM | HT-29 > 100 µM | KM12 > 100 µM | NCI-H226 > 100 µM | OVCAR-3 > 100 µM | OVCAR-8 > 100 µM | RPMI-8226 > 100 µM | RXF 393 > 100 µM | SF-268 > 100 µM | SK-MEL-2 > 100 µM

CCNC(=O)CCN(C(=O)O)S(=O)(=O)c1ccc(NC(=O)c2ccccc2)cc1
inactive: A498 > 100 µM | A549 > 100 µM | CCRF-CEM 59.4 µM | EKVX > 100 µM | HCC 2998 > 100 µM | HCT-116 35.6 µM | HL-60 > 100 µM | HOP-62 > 100 µM | HOP-92 > 100 µM | HT-29 50.8 µM | KM12 > 100 µM | NCI-H226 > 100 µM | OVCAR-3 > 100 µM | OVCAR-8 > 100 µM | RPMI-8226 > 100 µM | SF-268 > 100 µM | SK-MEL-2 > 100 µM

Nc1c(-c2nc3ccccc3[nH]2)sc(=S)n1-c1ccc(Cl)cc1
inactive: A498 31 µM | A549 23.5 µM | CCRF-CEM 41.1 µM | EKVX 35.8 µM | HCC 2998 21.8 µM | HL-60 > 100 µM | HOP-62 25.6 µM | HT-29 19.7 µM | KM12 28.6 µM | NCI-H226 26.5 µM | OVCAR-3 18.5 µM | OVCAR-8 23.8 µM | RPMI-8226 28.1 µM | RXF 393 23.8 µM | SF-268 25.3 µM | SK-MEL-2 25.6 µM

Cc1cc(N(CCC#N)CCC#N)ccc1/C=C/C(=O)Nc1ccccc1Cl
inactive: A498 > 100 µM | A549 > 100 µM | CCRF-CEM 45.5 µM | EKVX > 100 µM | HCC 2998 > 100 µM | HCT-116 > 100 µM | HL-60 31.4 µM | HOP-62 > 100 µM | HOP-92 > 100 µM | HT-29 > 100 µM | KM12 > 100 µM | NCI-H226 > 100 µM | OVCAR-3 > 100 µM | OVCAR-8 > 100 µM | RPMI-8226 > 100 µM | SF-268 > 100 µM | SK-MEL-2 > 100 µM

COc1cccc(NC(=O)CC(=O)N2N=C(N(CCC#N)c3ccccc3C)CC2c2ccccc2)c1 (stereo unspecified)
inactive: A549 > 100 µM | CCRF-CEM > 100 µM | EKVX > 100 µM | HCC 2998 > 100 µM | HCT-116 > 100 µM | HL-60 > 100 µM | HOP-62 > 100 µM | HOP-92 > 100 µM | HT-29 > 100 µM | KM12 > 100 µM | NCI-H226 > 100 µM | OVCAR-3 > 100 µM | OVCAR-8 > 100 µM | RPMI-8226 > 100 µM | RXF 393 > 100 µM | SF-268 > 100 µM | SK-MEL-2 > 100 µM

O=C(c1cccs1)N(C(=S)N1CCN(c2ccccc2)CC1)C1CCCCC1
inactive: A549 > 100 µM | CCRF-CEM > 100 µM | HCT-116 > 100 µM | HL-60 22.1 µM | HOP-62 > 100 µM | HOP-92 > 100 µM | HT-29 > 100 µM | KM12 > 100 µM | OVCAR-3 > 100 µM | OVCAR-8 > 100 µM | RPMI-8226 > 100 µM | RXF 393 > 100 µM | SF-268 > 100 µM | SK-MEL-2 > 100 µM

O=C(NCCc1ccccc1)C1C(=O)C(=O)N(CCc2ccccc2)C1=O (stereo unspecified)
inactive: A549 > 100 µM | CCRF-CEM > 100 µM | EKVX > 100 µM | HCT-116 > 100 µM | HL-60 > 100 µM | HOP-92 > 100 µM | HT-29 > 100 µM | KM12 > 100 µM | NCI-H226 > 100 µM | OVCAR-3 > 100 µM | RPMI-8226 > 100 µM | SF-268 > 100 µM | SK-MEL-2 > 100 µM

COc1ccc(-c2cc(O)c3cc4c(cc3n2)OCO4)c(OC)c1OC
inactive: A549 > 100 µM | CCRF-CEM 76.9 µM | EKVX > 100 µM | HCC 2998 > 100 µM | HCT-116 > 100 µM | HL-60 37.3 µM | HOP-62 87.1 µM | HOP-92 70.3 µM | HT-29 > 100 µM | KM12 68.9 µM | NCI-H226 > 100 µM | OVCAR-3 > 100 µM | OVCAR-8 > 100 µM | RPMI-8226 82.8 µM | RXF 393 > 100 µM | SF-268 > 100 µM | SK-MEL-2 > 100 µM

O=C1c2ccccc2C(=O)c2c1ccc1c2N=C(c2ccc(Br)cc2)CC(c2cccc3ccccc23)N1 (stereo unspecified)
inactive: A549 > 100 µM | CCRF-CEM > 100 µM | EKVX > 100 µM | HCC 2998 > 100 µM | HL-60 > 100 µM | HOP-62 > 100 µM | HT-29 > 100 µM | KM12 > 100 µM | NCI-H226 > 100 µM | OVCAR-3 > 100 µM | OVCAR-8 > 100 µM | RPMI-8226 83.6 µM | RXF 393 > 100 µM | SF-268 > 100 µM | SK-MEL-2 > 100 µM

O=P(Nc1ccccc1)(Oc1ccccc1)N(CCCl)CCCl (stereo unspecified)
inactive: A498 > 100 µM | A549 94 µM | CCRF-CEM 37.8 µM | EKVX > 100 µM | HCC 2998 > 100 µM | HCT-116 > 100 µM | HL-60 14.8 µM | HOP-62 > 100 µM | HOP-92 26.4 µM | HT-29 > 100 µM | KM12 65.8 µM | NCI-H226 > 100 µM | OVCAR-3 > 100 µM | OVCAR-8 71.9 µM | SF-268 > 100 µM | SK-MEL-2 36.5 µM

COc1ccc(OC)c(CC(C)N)c1 (stereo unspecified)
inactive: A498 > 100 µM | A549 > 100 µM | CCRF-CEM > 100 µM | EKVX > 100 µM | HCC 2998 > 100 µM | HCT-116 > 100 µM | HOP-62 > 100 µM | HT-29 > 100 µM | KM12 > 100 µM | NCI-H226 > 100 µM | OVCAR-3 > 100 µM | OVCAR-8 > 100 µM | RPMI-8226 > 100 µM | RXF 393 > 100 µM | SF-268 > 100 µM | SK-MEL-2 > 100 µM

COc1ccc(C[C@H](N)C(=O)N2C[C@@H](CO)C[C@@H](n3ccc(=O)[nH]c3=O)C2)cc1
inactive: A549 > 100 µM | CCRF-CEM > 100 µM | EKVX > 100 µM | HCC 2998 > 100 µM | HCT-116 > 100 µM | HL-60 > 100 µM | HOP-62 > 100 µM | HOP-92 > 100 µM | HT-29 > 100 µM | KM12 > 100 µM | NCI-H226 > 100 µM | OVCAR-3 > 100 µM | OVCAR-8 > 100 µM | RPMI-8226 > 100 µM | RXF 393 > 100 µM | SF-268 > 100 µM | SK-MEL-2 > 100 µM
